From patent publication US20090011405A1 (priority 2003, published 2009) come the findings set out here.

Bounds are passed on as bounds.

Test [1] concerns JUN1 and JUNZ (c-Jun self dimerization). The test can be described thus: Reverse two-hybrid assay with JUN1 and JUNZ, background and plating efficiency. It is filed as cell-based, yeast. How it is done: A reverse two-hybrid assay was performed using the interacting proteins JUN1 (amino acids 187-334, inclusive, of the JUN protein) and JUNZ (amino acids 259-309, inclusive, of the JUN protein) both of which comprise the leucine zipper domain of c-Jun (ie the region necessary for self dimerization). As a positive control FOSZ (amino acids 111-195, inclusive, of the FOS protein), a known blocker of c-Jun self dimerization was used. As a negative control, the expression vector alone was used. Gene constructs were transformed into cells comprising the negative selectable markers URA3 and CYH2.
Cells comprising only the interacting partners or the interacting partners and FOSZ (19F) or the interacting partners and the negative control (19) were grown in various concentrations of uracil (from 10 mg/L to 0 mg/L). All cells were also plated in the presence of 0.02% galactose; 0.04% FOA; and 5 μg/ml cycloheximide.
Background was determined by estimating the number of cells (colonies) that expressed only JUN1 and JUNZ and were still capable of growing in the presence of 5-FOA. Plating efficiency was determined by estimating the number of cells out of the 500 plated that expressed JUN1, JUNZ and FOSZ that were capable of growing in each set of conditions.
Using the same expression constructs and cells as in Example 2 cells were plated in the presence of increasing concentrations of 5-FOA and uracil. […]

Test [2] concerns the target JUN1 (amino acids 187-334, inclusive, of the JUN protein). The test can be described thus: cell-based or functional assay.
Test [3] addresses JUNZ (amino acids 259-309, inclusive, of the JUN protein). The test can be described thus: cell-based or functional assay.

For `C[C@@H]1C[C@@H]([C@H](O)CC2CC(=O)NC(=O)C2)C(=O)[C@@H](C)C1` [cycloheximide], in test [1] (JUN1/JUNZ cells, 0.2 or 0.5 mg/L uracil, 0.06% 5-FOA, 10000 or 100000 cells plated), the “background (effect of increasing cycloheximide concentration)” value is given as “lower levels of background”.

`O=c1cc[nH]c(=O)[nH]1` [uracil]: the “background (effect of increased uracil concentration)” value in test [1] (JUN1/JUNZ cells, uracil 10 to 0 mg/L, 0.02% galactose, 0.04% FOA, 5 μg/ml cycloheximide) is reported as “increased background”. Also, the “plating efficiency (effect of increased uracil concentration)” value in test [1] (JUN1/JUNZ/FOSZ cells, uracil 10 to 0 mg/L, 0.02% galactose, 0.04% FOA, 5 μg/ml cycloheximide) was “reduced plating efficiency”. The background in test [1] (cells expressing only JUN1 and JUNZ, 0.25 and 0.5 mg/L uracil, 0.02% galactose, 0.04% FOA, 5 μg/ml cycloheximide) worked out at 0%.

In the case of “FOSZ (amino acids 111-195, inclusive, of the FOS protein) (from UniProt P01100 111-195)”, the plating efficiency (cells expressing JUN1, JUNZ and FOSZ that grow under counter-selection) in test [2] and in test [3] was over 40% in each case.

For the molecule “JUN1 (amino acids 187-334, inclusive, of the JUN protein)”, the background (colonies expressing only JUN1 and JUNZ that still grow in the presence of 5-FOA) in test [3] was found to be 0%.

B1: FOSZ: amino acids 111-195, inclusive, of the FOS protein, a known blocker of c-Jun self dimerization (protein)
chain: VVKTMTGGRAQSIGRRGKVEQLSPEEEEKRRIRRERNKMAAAKCRNRRRELTDTLQAETDQLEDEKSALQTEIANLLKEKEKLEF
With B1, the plating efficiency entry in test [1] (cells expressing JUN1, JUNZ and FOSZ (19F), 500 plated, low concentrations of uracil, 0.02% galactose, 0.04% FOA, 5 μg/ml cycloheximide) is “greater than 40%”.
